One test deals with myogenin. The experiment in a line: Myogenin protein level by Western blot in differentiating C2C12 cells. The settings on record: 1, 10 and 50 µM, differentiation medium. Format: cell-based, Mouse. How it is done: (§1) Mouse myoblasts of the C2C12 cell line (ATCC) were seeded at a plating density of 7000 cells/cm2 in 6-well plates. They were grown in DMEM high glucose (4.5g/l) supplemented with gentamycin (50 µg/mL), amphotericin (50 µg/mL), and fetal calf serum (10%). Terminal differentiation was induced at cell confluence by lowering the medium serum concentration (0.5%).
(§2) When indicated, FuFA-F2 was added to the culture medium at the indicated concentration. For the differentiation studies, FuFA-F2 was added at the confluence at the same time as the change in media condition. Three doses of FuFA-F2 were studied at a final concentration of 1, 10, or 50 µM. Human insulin was used at a concentration of 100 nM.
Protein levels were assessed by Western blotting. Total proteins were measured using the Bio-Rad protein assay (Hercules, CA, USA) according to the manufacturer's instructions. Total proteins were lysed in RIPA buffer (20mM Tris, 150mM NaCl, 1mM EDTA, 1% NP40, pH 7.5 + complete cocktail protease inhibitors + Pierce phosphatase inhibitors tablet). 40 µg of cell extracts were loaded and blotted onto a nitrocellulose membrane. The membranes were washed, blocked with 5% nonfat milk and incubated in primary antibody overnight at 4°C. […]
(In western blotting, separated proteins are transferred to a membrane and probed.)

Another test concerns Citrate synthase (CS). The experiment in a line: Citrate synthase activity in quadriceps of supplemented C57Bl6 mice. To be noted: 20mg/kg oral gavage. The test is classed as in vivo. As for the experimental part: Male C57Bl/6J wild-type mice were obtained from Janvier at 12 weeks of age and were randomly assigned to one of the two groups based on body weight. Mice were housed 2 per cage and maintained on a 12-hour light/dark cycle (lights on at 7:30 pm). Food and water were provided ad libitum. Enrichment (nesting cotton squares) was provided in each cage. Mice were treated once daily by oral gavage with vehicle (50% PEG-400, 0.5% Tween 80, and 49.5% distilled water) or FuFA-F2 (20 mg/kg). All animal experiments were performed according to European directives (86/609/CEE and 2010/63/CEE) and approved by the regional animal experimentation ethics committe: Région Languedoc-Roussillon (No36). […]
(§3) Mitochondrial respiratory complex activities were determined as previously described (Casas et al., 2008, PloS ONE, Vol. 3(6) : e2501). Citrate synthase (CS) activity was measured according to Srere (Srere et al., 1967, Science, Vol. 158(3803) : 936-937) by following the color formation of 5-thio-2-nitrobenzoic acid at 412 nm. The enzymatic activity of complex IV (cytochrome c oxidase) was measured according to Wharton and Tzagoloff (Wharton et al., 1967, Methods in Enzymology, Vol. 10, Edn Elsevier BV, Amsterdam, The Netherlands), a spectrophotometer following the oxidation of reduced cytochrome c at 550 nm, pH 7.4, and 37 °C. […]

A further test has as its system Citrate synthase. The experiment in a line: Citrate synthase activity of C2C12 myotubes. The test is classed as cell-based, Mouse. To be noted: 3 days of treatment of C2C12 myotubes. As for the experimental part: as §1, §2
as §3, with “°C. Cytochrome c was reduced with sodium dithionite.” for “°C.”

For another test, the system named is mTOR (Ser2448). The experiment in a line: mTOR phosphorylation by Western blot in C2C12 myotubes. Format: cell-based, Mouse. How it is done:
as §1, §2
Protein levels were assessed by Western blotting. Total proteins were measured using the Bio-Rad protein assay (Hercules, CA, USA) according to the manufacturer's instructions. Total proteins were lysed in RIPA buffer (20mM Tris, 150mM NaCl, 1mM EDTA, 1% NP40, pH 7.5 + complete cocktail protease inhibitors + Pierce phosphatase inhibitors tablet). 40 µg of cell extracts were loaded and blotted onto a nitrocellulose membrane. The membranes were washed, blocked with 5% nonfat milk and incubated in primary antibody overnight at 4°C. The membranes were then washed in TBS-Tween (10mM Tris, 140mM NaCl, and 0.2% Tween-20), incubated with the appropriate secondary antibody coupled to horseradish peroxidase, and washed again in TBS-Tween. […] Touch Software (version 5.2.1) (Hercules, CA, USA). […]
It is shown that FuFA-F2 increased protein accretion in myotubes. Protein homeostasis is determined by the dynamic balance between protein synthesis and degradation. Protein synthesis was evaluated by measuring the phosphorylation of Akt (Ser473), mTOR (Ser2448) and 4E-BP1 (Thr37/46), which are major regulators of translation and protein synthesis. […]

On to `CCCCCc1cc(C)c(CCCCCCCCC(=O)O)o1` [FuFA-F2], for which, in the test with myogenin, the expression of myogenin result was “no effect”. The “Citrate synthase (CS)” value in the test on Citrate synthase (CS) is “not modified”. Also, the citrate synthase activity entry in the test on Citrate synthase was “no effect”. Moreover, in the test on mTOR (Ser2448) (3-day pretreatment, 2 hours low-glucose medium, then treatment for 30 minutes, insulin alone 100 nM), the “mTOR phosphorylation at Ser2448” value was “significant increase”. For the same compound, the mTOR phosphorylation entry in the test with mTOR (Ser2448) (high glucose medium, 3 days, with or without FuFA-F2) was “no difference”. Further, the “rapid effect on mTOR phosphorylation” value with mTOR (Ser2448) (without pretreatment, 30 min incubation after low-glucose medium) is “not observed”.

These data come from patent publication EP4385508A1, “FURAN FATTY ACIDS FOR ENHANCING MUSCLE MASS” (Centre de Coopération Internationale en Recherche …, priority 2022, dated 2024).
